The text below walks through data of patent publication US7932272B2, “Antifungal agent containing heterocyclic compound” (Eisai R&D Management Co., Ltd., priority 2003, dated 2011).

Assay [1] relates to A. fumigatus Tsukuba strain. In words: Anti-Aspergillus activity (MIC measurement). Type of assay: cell-based. The settings on record: MIC by visual inspection, 48 hours at 30 to 35° C. As for the experimental part: (§1) For the C. albicans E81022 strain, a fungal suspension from a standing culture for 48 hours at 30° C. in a Sabouraud dextrose liquid culture medium (SDB) was diluted 10,000-fold with a 1.3-fold concentrated SDB to adjust to a fungal suspension of 1 to 2×10^4 cells/ml. For the A. fumigatus Tsukuba strain, −80° C. stored strain was diluted 1,000-fold with a 1.3-fold concentrated SDB to adjust to a fungal suspension of 2 to 3×10^3 cells/ml.
(§2) Using a U-bottomed 96 well plate, 8 samples/plate (A to H) of sample dilution solutions were prepared. On the 3rd row of each plate was dispensed 240 μl of sterilized and distilled water, and on the 2nd and 4th to 12th rows were dispensed 125 μl of 4% dimethylsulfoxide solution. Weighed sample was dissolved in dimethylsulfoxide to prepare a 2.5 to 20 mg/ml solution, 10 μl of this solution was then added to the 3rd row of the prepared plate, and 10 steps of two-fold step dilutions (125 μl of solution+125 μl of 4% dimethylsulfoxide) were performed on the plate.
(§3) The fungal suspension preprared in (1) was used in the amount of 75 μl/well to inoculate a V-bottomed or flat-bottomed 96 well plate containing 25 μl/well of test compound dilution solution prepared in (2), and a standing culture was carried out aerobically for 48 hours at 30 to 35° C.

For assay [2], the system named is C. albicans E81022 strain. Briefly: Anti-Candida activity (MIC measurement). Type of assay: cell-based. The settings on record: E81022STRAIN, MIC by visual inspection, C. albicans E81022, 48 hours at 30 to 35° C. The procedure:
as §1, §2, §3

Each structure is given as a SMILES string. ≈ marks a conversion by molar mass, not a printed value.

Consider `Nc1ncccc1C(=O)NCc1ccc(Cc2ccccc2)o1` [Example A-5, 2-Amino-N-(5-benzyl-furan-2-ylmethyl)-nicotinamide], for which the values for the MIC in assay [1] and in assay [2] were 0.78 µg/mL (≈ 2.54 µM) and 0.2 µg/mL (≈ 0.651 µM), respectively.
The matching figures for `Nc1ncccc1C(=O)NCc1ccc(CCNc2ccccc2)o1` [Example A-8, 2-Amino-N-(5-(2-phenylamino-ethyl)-furan-2-ylmethyl)-nicotinamide]: 6.25 µg/mL (≈ 18.6 µM) and 3.13 µg/mL (≈ 9.3 µM).
The matching figures for `Nc1ncccc1C(=S)NCc1ccc(OCc2ccccc2)cc1` [Example A-22, 2-Amino-N-(4-benzyloxy-benzyl)-thionicotinamide]: 3.13 µg/mL (≈ 8.96 µM) and 0.78 µg/mL (≈ 2.23 µM).
The matching figures for `Cc1ccc(C(=O)NCc2ccc(OCc3ccccc3)cc2)c(N)n1` [Example A-37, 2-Amino-N-(4-benzyloxy-benzyl)-6-methyl-nicotinamide]: 3.13 µg/mL (≈ 9.01 µM) and 0.39 µg/mL (≈ 1.12 µM).
For `Nc1ccc(C(=O)NCc2ccc(OCc3ccccc3)cc2)cn1` [Example A-39, 6-Amino-N-(4-benzyloxybenzyl)-nicotinamide], the MIC in assay [1] and in assay [2] was 1.56 µg/mL (≈ 4.68 µM) in each case.
For the compound `Nc1nc(NCCCn2nccn2)ccc1C(=O)NCc1ccc(Oc2ccccc2)s1` [Example A-81, 2-Amino-N-(5-phenoxy-thiophen-2-ylmethyl)-6-(3-[1,2,3]-triazol-2-yl-propylamino)-nicotinamide], the MIC in assay [1] was determined as 6.25 µg/mL (≈ 13.9 µM); in assay [2] it was 3.13 µg/mL (≈ 6.96 µM).
The corresponding values for `Nc1nc(NCc2ccco2)ccc1C(=O)NCc1ccc(Oc2ccccc2)s1` [Example A-82, 2-Amino-6-(furfurylamino)-N-(5-phenoxy-thiophen-2-ylmethyl)-nicotinamide] are 1.56 µg/mL (≈ 3.71 µM) and 0.2 µg/mL (≈ 0.476 µM).
In turn, `Nc1ccc(NCCNc2ccc(C(=O)NCc3ccc(Oc4ccccc4)s3)c(N)n2)cc1` [Example A-92, 2-Amino(2-(4-amino-phenylamine)-ethylamino)-N-(5-phenoxy-thiophen-2-ylmethyl)-nicotinamide] showed an MIC in assay [2] of 3.13 µg/mL (≈ 6.6 µM).
In the case of `CC(=O)c1ccc(C(=O)NCc2ccc(Oc3ccccc3)s2)c(N)n1` [Example A-98, 6-Acetyl-2-amino-N-(5-phenoxy-thiophen-2-ylmethyl)-nicotinamide], the MIC in assay [1] is 1.56 µg/mL (≈ 4.25 µM); in assay [2] it was 0.39 µg/mL (≈ 1.06 µM).
The matching figures for `Nc1nc(NCC(=O)O)ccc1C(=O)NCc1ccc(Oc2ccccc2)s1` [Example A-99, (6-Amino-5-((5-phenoxy-thiophen-2-ylmethyl)-carbamoyl)-pyridin-2-ylamino)-acetic acid]: 6.25 µg/mL (≈ 15.7 µM) and 3.13 µg/mL (≈ 7.86 µM).
The matching figures for `Nc1nc(Cl)ccc1C(=O)NCc1ccc(Oc2ccccc2)s1` [Example A-101, 2-Amino-6-chloro-N-(5-phenoxy-thiophen-2-ylmethyl)-nicotinamide]: 0.39 µg/mL (≈ 1.08 µM) and 0.1 µg/mL (≈ 0.278 µM).
Turning to `Nc1nc(OCCO)ccc1C(=O)NCc1ccc(Oc2ccccc2)s1` [Example A-112, 2-Amino-6-(2-hydroxyethoxy)-N-(5-phenoxy-thiophen-2-ylmethyl)-nicotinamide], the MIC is 6.25 µg/mL (≈ 16.2 µM) in assay [1] and 3.13 µg/mL (≈ 8.12 µM) in assay [2].
The matching figures for `COc1ccc(C(=O)NCc2ccc(Oc3ccccc3)s2)c(N)n1` [Example A-116, 2-Amino-6-methoxy-N-(5-phenoxy-thiophen-2-ylmethyl)-nicotinamide]: 3.13 µg/mL (≈ 8.81 µM) and 0.39 µg/mL (≈ 1.1 µM).
For the compound `COCCCc1ccc(C(=O)NCc2ccc(Oc3ccccc3)s2)c(N)n1` [Example A-124, 2-Amino-6-(3-methoxy-propyl)-N-(5-phenoxy-thiophen-2-ylmethyl)-nicotinamide], in assay [2], inhibition of growth (MIC) required 1.56 µg/mL (≈ 3.92 µM).
Take `Nc1nc(NCc2ccccc2)ccc1C(=O)NCc1ccc(Oc2ccccc2)s1` [Example A-126, 2-Amino-6-benzylamino-N-(5-phenoxy-thiophen-2-ylmethyl)-nicotinamide]: the MIC in assay [1] stood at 6.25 µg/mL (≈ 14.5 µM); in assay [2] it was 0.78 µg/mL (≈ 1.81 µM).
Turning to `O=C(O)CCNc1ncccc1C(=O)NCc1ccc(Oc2ccccc2)s1` [Example A-131], the figures for the MIC in assay [1] and in assay [2] were 6.25 µg/mL (≈ 15.7 µM) and 1.56 µg/mL (≈ 3.92 µM), respectively.
The compound `CNc1ncccc1C(=O)NCc1ccc(Oc2ccccc2)s1` [Example A-136, 2-Methylamino-N-(5-phenoxy-thiophen-2-ylmethyl)-nicotinamide] came in with an MIC in assay [2] of 1.56 µg/mL (≈ 4.6 µM).
In the case of `Nc1ccc(C(=O)NCc2ccc(Oc3ccc(F)cc3)s2)cn1` [Example A-139, 6-Amino-N-(5-(4fluoro-phenoxy)-thiophen-2-ylmethyl)-nicotinamide], the MIC in assay [1] and in assay [2] was 1.56 µg/mL (≈ 4.54 µM) throughout.
Turning to `Cc1sc(CNC(=O)c2cccnc2N)cc1Oc1ccccc1` [Example A-170, 2-Amino-N-(5-methyl-4-phenoxy-thiophen-2-ylmethyl)-nicotinamide], the MIC in assay [2] came to 0.78 µg/mL (≈ 2.3 µM).
In the case of `Nc1ncccc1C(=O)NCc1cc(Cl)c(Oc2ccccc2)s1` [Example A-171, 2-Amino-N-(4-chloro-5-phenoxy-thiophen-2-ylmethyl)-nicotinamide], the MIC in assay [1] amounted to 1.56 µg/mL (≈ 4.34 µM); in assay [2], 0.2 µg/mL (≈ 0.556 µM).
The matching figures for `Nc1ncncc1C(=O)NCc1ccc(Oc2ccccc2)s1` [Example B-1, 4-Amino-pyrimidine-5-carboxylic acid (5-phenoxy-thiophen-2-ylmethyl)-amide]: 6.25 µg/mL (≈ 19.1 µM) and 3.13 µg/mL (≈ 9.59 µM).
Consider `Nc1nc2c(cc1C(=O)NCc1ccc(Oc3ccccc3)s1)CCC2` [Example C-1], for which 0.1 µg/mL (≈ 0.274 µM) was the least that counted as inhibitory in assay [2] (MIC).
For the compound `O=C(NCc1ccc(OCc2ccccc2)cc1)c1ccc2ncccc2n1` [Example D-2, [1.5]Naphthylidine-2-carboxylic acid 4-benzyloxybenzylamide], the minimal inhibitory concentration (MIC) in assay [1] and in assay [2] was 0.78 µg/mL (≈ 2.11 µM) each time.
As for `O=C(NCc1ccc(OCc2ccccc2)cc1)c1ccc2ncccc2c1` [Example E-8, quinoline-6-carboxylic acid 4-benzyloxybenzylamide], the MIC in assay [1] and in assay [2] was 0.2 µg/mL (≈ 0.543 µM) each time.
On to `O=C(NCc1cccc(Oc2ccccc2)c1)c1ccc2ncccc2c1` [Example E-11, Quinoline-6-carboxylic acid 3-phenoxybenzylamide], for which the MIC in assay [1] was found to be 1.56 µg/mL (≈ 4.4 µM); in assay [2], 0.39 µg/mL (≈ 1.1 µM).
On to `O=C(NCc1cccc(-c2ccccc2)c1)c1ccc2ncccc2c1` [Example E-13, Quinoline-6-carboxylic acid (biphenyl-3-ylmethyl)-amide], for which the MIC in assay [1] worked out at 1.56 µg/mL (≈ 4.61 µM); in assay [2] it was 0.78 µg/mL (≈ 2.3 µM).
The corresponding values for `O=C(Cc1cccc(Oc2ccccc2)c1)Nc1ccc2ncccc2c1` [Example E-19, 2-(3-Phenoxy-phenyl)-N-quinolin-6-yl-acetamide] are 1.56 µg/mL (≈ 4.4 µM) and 0.78 µg/mL (≈ 2.2 µM).
`O=C(NCc1ccc(Nc2ccccc2)cc1)c1ccc2ncccc2c1` [Example E-25, Quinoline-6-carboxylic acid 4-phenylamino-benzylamide] yielded an MIC in assay [2] of 1.56 µg/mL (≈ 4.41 µM).
Still for that read-out and setting: then `O=C(NCc1cccc(OCC2CC2)c1)c1ccc2ncccc2c1` [Example E-43, Quinoline-6-carboxylic acid 3-cyclopropylmethoxy-benzylamide], with 0.39 µg/mL (≈ 1.17 µM).
On to `CO/N=C(\NCc1ccc(OCc2ccccc2)cc1)c1ccc2ncccc2c1` [Example E-44, N-(4-Benzyloxy-benzyl)-N′-methoxy-quinoline-6-carboxamidine], for which inhibition of growth in assay [2] (MIC) required 3.13 µg/mL (≈ 7.87 µM).
As to `N#C/N=C(\NCc1ccc(OCc2ccccc2)cc1)c1ccc2ncccc2c1` [Example E-45, N-(4-Benzyloxy-benzyl)-N′-cyano-quinoline-6-carboxamidine], the MIC in assay [1] and in assay [2] was 3.13 µg/mL (≈ 7.98 µM) throughout.
`O=C(NCc1cccc(C=C2CCCC2)c1)c1ccc2ncccc2c1` [Example E-51, 6-Quinolinecarboxylic acid 3-cyclopentylydenemethylbenzylamide]: the values for the MIC in assay [1] and in assay [2] were 3.13 µg/mL (≈ 9.14 µM) and 0.78 µg/mL (≈ 2.28 µM), respectively.
The matching figures for `O=C(NCc1ccc(OCc2ccccc2)cc1F)c1ccc2ncccc2c1` [Example E-53, Quinoline-6-carboxylic acid 4-benzyloxy-2-fluoro-benzalamide]: 3.13 µg/mL (≈ 8.1 µM) and 1.56 µg/mL (≈ 4.04 µM).
The corresponding values for `O=C(NCc1ccn(Cc2ccccc2)c1)c1ccc2ncccc2c1` [Example E-57, Quinoline-6-carboxylic acid (1-benzyl-1H-pyrrol-3-ylmethyl)-amide] are 6.25 µg/mL (≈ 18.3 µM) and 0.2 µg/mL (≈ 0.586 µM).
The corresponding values for `N#Cc1cccc(Oc2ccc(CNC(=O)c3ccc4ncccc4c3)s2)c1` [Example E-64, Quinoline-6-carboxylic acid (5-(3-cyano-phenoxy)-thiophen-2-ylmethyl)-amide] are 6.25 µg/mL (≈ 16.2 µM) and 0.2 µg/mL (≈ 0.519 µM).
`O=C(NCc1cccc(Oc2ccccc2)c1)c1ccc2nnccc2c1` [Example F-1, Cinnoline-6-carboxylic acid 3-phenoxy-benzylamide] registered an MIC in assay [2] of 3.13 µg/mL (≈ 8.81 µM).
On the same count and under the same terms, the value for `O=C(NCc1cccc(Oc2ccccc2)c1)c1ccc2cnccc2c1` [Example G-1, Isoquinoline-6-carboxylic acid 3-phenoxybenzylamide] was 6.25 µg/mL (≈ 17.6 µM).
Turning to `O=C(NCc1cccc(Oc2ccccc2)c1)c1ccc2[nH]ccc2c1` [Example V-1, 1H-Indole-5-carboxylic acid 3-phenoxybenzylamide], 6.25 µg/mL (≈ 18.3 µM) was the least that counted as inhibitory in assay [1] (MIC).

One may read the MIC as the lowest concentration that inhibits growth of the organism. A higher MIC goes with a need for much substance.
